Source: PubChem BioAssay (NCI)
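Step 1: Grow cells in 96-well plates. Step 2: Expose to compound for 48 hours at 5 concentrations. Step 3: Interpolate endpoints linearly; if unreached, use highest concentration. TGI marks complete inhibition of growth.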

What was measured:
Assay in all cases: growth of human tumour cells (NCI), 48 h
SR leukemia = test system: SR leukemia
MOLT-4 leukemia = test system: MOLT-4 leukemia
HOP-62 NSCLC = test system: HOP-62 NSCLC
SNB-19 CNS = test system: SNB-19 CNS
SF-539 CNS = test system: SF-539 CNS
UACC-257 melanoma = test system: UACC-257 melanoma
A549 NSCLC = test system: A549 NSCLC
M14 melanoma = test system: M14 melanoma
MALME-3M melanoma = test system: MALME-3M melanoma
PC-3 prostate = test system: PC-3 prostate
786-0 renal = test system: 786-0 renal
SF-268 CNS = test system: SF-268 CNS
NCI-H522 lung = test system: NCI-H522 lung
HS 578T breast = test system: HS 578T breast
MDA-N = test system: MDA-N
RXF 393 renal = test system: RXF 393 renal
OVCAR-3 ovarian = test system: OVCAR-3 ovarian
NCI-H460 lung = test system: NCI-H460 lung
CCRF-CEM leukemia = test system: CCRF-CEM leukemia
SK-MEL-5 melanoma = test system: SK-MEL-5 melanoma
KM12 colon = test system: KM12 colon
SK-MEL-28 melanoma = test system: SK-MEL-28 melanoma
SK-OV-3 ovarian = test system: SK-OV-3 ovarian
K-562 leukemia = test system: K-562 leukemia
SK-MEL-2 melanoma = test system: SK-MEL-2 melanoma
RPMI-8226 leukemia = test system: RPMI-8226 leukemia
OVCAR-4 ovarian = test system: OVCAR-4 ovarian
SNB-75 CNS = test system: SNB-75 CNS
U251 CNS = test system: U251 CNS
DU-145 prostate = test system: DU-145 prostate
NCI-H226 lung = test system: NCI-H226 lung
IGROV1 ovarian = test system: IGROV1 ovarian
EKVX NSCLC = test system: EKVX NSCLC
A498 renal = test system: A498 renal
CAKI-1 renal = test system: CAKI-1 renal
HL-60(TB) leukemia = test system: HL-60(TB) leukemia
HCC-2998 colon = test system: HCC-2998 colon
HCT-15 colon = test system: HCT-15 colon
MDA-MB-435 = test system: MDA-MB-435
HOP-92 NSCLC = test system: HOP-92 NSCLC
HT29 colon = test system: HT29 colon
ACHN renal = test system: ACHN renal
OVCAR-5 ovarian = test system: OVCAR-5 ovarian
OVCAR-8 ovarian = test system: OVCAR-8 ovarian
BT-549 breast = test system: BT-549 breast
MCF7 breast = test system: MCF7 breast
NCI/ADR-RES ovarian = test system: NCI/ADR-RES ovarian
SN12C renal = test system: SN12C renal
MDA-MB-231 breast = test system: MDA-MB-231 breast
HCT-116 colon = test system: HCT-116 colon
NCI-H23 lung = test system: NCI-H23 lung
SW-620 colon = test system: SW-620 colon
UACC-62 melanoma = test system: UACC-62 melanoma
LOX IMVI melanoma = test system: LOX IMVI melanoma
T-47D breast = test system: T-47D breast
COLO 205 colon = test system: COLO 205 colon
UO-31 renal = test system: UO-31 renal
SF-295 CNS = test system: SF-295 CNS
TK-10 renal = test system: TK-10 renal

N=c1oc2ccc([N+](=O)[O-])cc2cc1C(=O)Nc1ccccn1
TGI (SR leukemia): > 100 µM | TGI (MOLT-4 leukemia): > 100 µM | TGI (HOP-62 NSCLC): > 100 µM | TGI (SNB-19 CNS): > 100 µM | TGI (SF-539 CNS): > 100 µM | TGI (UACC-257 melanoma): > 100 µM | TGI (A549 NSCLC): > 100 µM | TGI (M14 melanoma): > 100 µM | TGI (MALME-3M melanoma): 77.6 µM | TGI (PC-3 prostate): 43.9 µM | TGI (786-0 renal): 42.9 µM | TGI (SF-268 CNS): > 100 µM | TGI (NCI-H522 lung): 86.2 µM | TGI (HS 578T breast): 78.5 µM | TGI (MDA-N): > 100 µM | TGI (RXF 393 renal): > 100 µM | TGI (OVCAR-3 ovarian): 65.8 µM | TGI (NCI-H460 lung): > 100 µM | TGI (CCRF-CEM leukemia): > 100 µM | TGI (SK-MEL-5 melanoma): > 100 µM | TGI (KM12 colon): > 100 µM | TGI (SK-MEL-28 melanoma): > 100 µM | TGI (SK-OV-3 ovarian): > 100 µM | TGI (K-562 leukemia): > 100 µM | TGI (SK-MEL-2 melanoma): 43.4 µM | TGI (RPMI-8226 leukemia): > 100 µM | TGI (OVCAR-4 ovarian): > 100 µM | TGI (SNB-75 CNS): > 100 µM | TGI (U251 CNS): > 100 µM | TGI (DU-145 prostate): > 100 µM | TGI (NCI-H226 lung): > 100 µM | TGI (IGROV1 ovarian): > 100 µM | TGI (EKVX NSCLC): > 100 µM | TGI (A498 renal): > 100 µM | TGI (CAKI-1 renal): > 100 µM | TGI (HL-60(TB) leukemia): > 100 µM | TGI (HCC-2998 colon): > 100 µM | TGI (HCT-15 colon): > 100 µM | TGI (MDA-MB-435): > 100 µM | TGI (HOP-92 NSCLC): > 100 µM | TGI (HT29 colon): > 100 µM | TGI (ACHN renal): > 100 µM | TGI (OVCAR-5 ovarian): > 100 µM | TGI (OVCAR-8 ovarian): > 100 µM | TGI (BT-549 breast): > 100 µM | TGI (MCF7 breast): > 100 µM | TGI (NCI/ADR-RES ovarian): > 100 µM | TGI (SN12C renal): > 100 µM | TGI (MDA-MB-231 breast): 59.9 µM | TGI (HCT-116 colon): > 100 µM | TGI (NCI-H23 lung): > 100 µM | TGI (SW-620 colon): > 100 µM | TGI (UACC-62 melanoma): > 100 µM | TGI (LOX IMVI melanoma): > 100 µM | TGI (T-47D breast): > 100 µM | TGI (COLO 205 colon): > 100 µM

N#CC12CC=C(c3ccccc3)N=C1NC(c1ccccc1)=CC2 (centres undefined)
TGI (SR leukemia): 82.2 µM | TGI (MOLT-4 leukemia): 55.1 µM | TGI (HOP-62 NSCLC): > 100 µM | TGI (SNB-19 CNS): > 100 µM | TGI (SF-539 CNS): > 100 µM | TGI (UACC-257 melanoma): > 100 µM | TGI (A549 NSCLC): > 100 µM | TGI (M14 melanoma): > 100 µM | TGI (MALME-3M melanoma): > 100 µM | TGI (PC-3 prostate): > 100 µM | TGI (786-0 renal): > 100 µM | TGI (UO-31 renal): > 100 µM | TGI (SF-268 CNS): > 100 µM | TGI (NCI-H522 lung): > 100 µM | TGI (HS 578T breast): > 100 µM | TGI (MDA-N): > 100 µM | TGI (SF-295 CNS): > 100 µM | TGI (RXF 393 renal): > 100 µM | TGI (OVCAR-3 ovarian): > 100 µM | TGI (NCI-H460 lung): > 100 µM | TGI (CCRF-CEM leukemia): 77.7 µM | TGI (SK-MEL-5 melanoma): 39.4 µM | TGI (KM12 colon): > 100 µM | TGI (SK-MEL-28 melanoma): > 100 µM | TGI (SK-OV-3 ovarian): > 100 µM | TGI (K-562 leukemia): > 100 µM | TGI (SK-MEL-2 melanoma): > 100 µM | TGI (TK-10 renal): > 100 µM | TGI (RPMI-8226 leukemia): 73.8 µM | TGI (OVCAR-4 ovarian): > 100 µM | TGI (SNB-75 CNS): > 100 µM | TGI (U251 CNS): > 100 µM | TGI (DU-145 prostate): > 100 µM | TGI (NCI-H226 lung): > 100 µM | TGI (IGROV1 ovarian): > 100 µM | TGI (EKVX NSCLC): > 100 µM | TGI (A498 renal): 97 µM | TGI (HL-60(TB) leukemia): 50.5 µM | TGI (HCC-2998 colon): > 100 µM | TGI (HCT-15 colon): > 100 µM | TGI (MDA-MB-435): > 100 µM | TGI (HOP-92 NSCLC): 92.2 µM | TGI (HT29 colon): > 100 µM | TGI (ACHN renal): > 100 µM | TGI (OVCAR-5 ovarian): > 100 µM | TGI (OVCAR-8 ovarian): > 100 µM | TGI (BT-549 breast): > 100 µM | TGI (MCF7 breast): > 100 µM | TGI (NCI/ADR-RES ovarian): > 100 µM | TGI (SN12C renal): > 100 µM | TGI (MDA-MB-231 breast): > 100 µM | TGI (HCT-116 colon): > 100 µM | TGI (NCI-H23 lung): > 100 µM | TGI (SW-620 colon): > 100 µM | TGI (UACC-62 melanoma): > 100 µM | TGI (LOX IMVI melanoma): > 100 µM | TGI (T-47D breast): > 100 µM | TGI (COLO 205 colon): > 100 µM
